US10239884B2, “Coelenterazine compounds and uses thereof” (KEIO UNIVERSITY, priority 2017, dated 2019)

Legend:
Type in all cases: biochemical
[1] = molecular target: T1, RLuc8 (Renilla reniformis, UniProt P27652, A143M/A55T/C124A/K136R/M185V/M253L/S130A/S287L); details: 2 μM substrate in PBS pH 7.4, cell lysate, maximum intensity over 1 second, relative value
T1 construct: expressed in transfected cells; host or cells: COST cells (so in the source)
Excerpt: (§1) The luciferases were respectively expressed in COST cells using an expression vector (pcDNA3.1(+), commercially available from Invitrogen) comprising the sequence encoding native Renilla Luciferase (RLuc) (trade name pGL4.75, commercially available from Promega) or an expression vector (trade name pcDNA3.1(+), commercially available from Invitrogen) comprising the sequence encoding a RLuc derivative RLuc8 or RLuc8.6-535 (Reference: Loening, A. M. et al., Nat. Methods, 2007, 4, 641-643.). The cells were lysed using a Renilla Luciferase Lysis Buffer (E291A, Promega), and the lysate was directly used as an enzyme solution. […] Bioluminescence was measured according to the protocol of Renilla Luciferase Assay System (Cat. No. E 2810; Promega). The luminescent substrate was dissolved in methanol to prepare a 2 mM solution. The solution was diluted to 2 μM with PBS buffer (pH 7.4), and the diluted solution was used as a substrate solution. To 200 μL of the substrate solution, 4 μL of the cell lysate containing RLuc, RLuc 8 or RLuc8.6-535 was added to start the luminescent reaction. The luminescence intensity was measured with a Berthold Lumat LB 9507 for 1 second, and indicated by the maximum luminescence intensity (I). The luminescence intensity of the native CTZ by RLuc8 was set to be 1.0, and the other bioluminescence intensities were normalized to be relative values to that of native CTZ.

[2] = molecular target: T1, RLuc8; details: bioluminescence spectrum, ATTO LumiFL
Experimental: (§2) As in the method for measuring bioluminescence intensity described above, luminescence spectrum was measured according to the protocol of Renilla Luciferase Assay System (Cat. No. E 2810; Promega). The luminescence spectrum was measured using ATTO LumiFL. The maximum luminescence intensities were normalized to be relative values to 1.0 upon determination of the maximum luminescence wavelength.

[3] = molecular target: T2, RLuc8.6-535 (Renilla reniformis, UniProt P27652, A123S/A143M/A55T/C124A/D154M/D162E/E155G/I163L/K136R/M185L/M253L/S130A/S287L); design: expressed in transfected cells; host or cells: COST cells (so in the source); details: 2 μM substrate in PBS pH 7.4, cell lysate, maximum intensity over 1 second, relative value
T2 sequence (P27652 whole entry A55T/A123S/C124A/S130A/K136R/A143M/D154M/E155G/D162E/I163L/M185L/M253L/S287L): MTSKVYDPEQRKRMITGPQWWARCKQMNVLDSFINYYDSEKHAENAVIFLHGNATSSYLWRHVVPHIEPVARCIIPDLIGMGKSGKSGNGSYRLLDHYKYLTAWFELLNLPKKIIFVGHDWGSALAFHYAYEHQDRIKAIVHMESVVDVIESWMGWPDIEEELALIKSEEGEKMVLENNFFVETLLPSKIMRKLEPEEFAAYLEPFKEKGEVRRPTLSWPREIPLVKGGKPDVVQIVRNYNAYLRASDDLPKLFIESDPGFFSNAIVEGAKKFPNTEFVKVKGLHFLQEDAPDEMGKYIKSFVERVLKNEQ
Excerpt: as §1

[4] = molecular target: T2, RLuc8.6-535; design: expressed in transfected cells; host or cells: COST cells (so in the source); details: bioluminescence spectrum, ATTO LumiFL
Experimental: as §2

T1 sequence (P27652 whole entry A55T/C124A/S130A/K136R/A143M/M185V/M253L/S287L): as the sequence (P27652 whole entry A55T/A123S/C124A/S130A/K136R/A143M/D154M/E155G/D162E/I163L/M185L/M253L/S287L) above, with S123A, M154D, G155E, E162D, L163I, L185V counted along it

Compound	RLuc8 luminescence intensity (%) [1]	RLuc8 half-width (nm) [2]	RLuc8 maximum luminescence wavelength (nm) [2]	RLuc8.6-535 luminescence intensity (%) [3]	RLuc8.6-535 half-width (nm) [4]	RLuc8.6-535 maximum luminescence wavelength (nm) [4]
COCCCOc1ccc(-c2cn3c(=O)c(Cc4ccccc4)nc-3c(Cc3ccccc3)[nH]2)cc1 [6-Alkyl3OMe-2H-CTZ]	2.93%	[49] nm	416 nm	29.3%	[53] nm	413 nm
O=c1c(Cc2ccccc2)nc2c(Cc3ccccc3)[nH]c(-c3ccc(OCCCO)cc3)cn1-2 [6-Alkyl3OH-2H-CTZ]	5.03%	[65] nm	411 nm	23.9%	[56] nm	413 nm
CCCCOc1ccc(-c2cn3c(=O)c(Cc4ccc(O)cc4)nc-3c(Cc3ccccc3)[nH]2)cc1 [Example 6-Alkyl3-CTZ]	8.07%	[46] nm	(413) nm	39.6%	[60] nm	412 nm
Cc1ccc(-c2cn3c(=O)c(Cc4ccccc4)nc-3c(Cc3ccccc3)[nH]2)cc1 [6-Methyl-2H-CTZ]	1.44%	[45] nm	408 nm	25.3%	[49] nm	411 nm
CCc1ccc(-c2cn3c(=O)c(Cc4ccc(O)cc4)nc-3c(Cc3ccccc3)[nH]2)cc1 [Example 6-Ethyl-CTZ]	2.68%	–	(410) nm	29.4%	[60] nm	406 nm
COCc1ccc(-c2cn3c(=O)c(Cc4ccc(O)cc4)nc-3c(Cc3ccccc3)[nH]2)cc1 [Example 6-Ether-CTZ, reference compound]	0.85%	–	(420) nm	8.94%	[49] nm	411 nm
COCc1ccc(-c2cn3c(=O)c(Cc4ccccc4)nc-3c(Cc3ccccc3)[nH]2)cc1 [6-Ether-2H-CTZ, reference compound]	0.36%	–	(393) nm	2.17%	[53] nm	406 nm
O=c1c(Cc2ccccc2)nc2c(Cc3ccccc3)[nH]c(-c3ccc(OCCCCCO)cc3)cn1-2 [6-Alkyl5OH-2H-CTZ]	2.88%	[70] nm	403 nm	18.0%	[68] nm	406 nm
O=c1c(Cc2ccc(O)cc2)nc2c(Cc3ccccc3)[nH]c(-c3ccc(OCCO)cc3)cn1-2 [6-Alkyl2OH-CTZ]	15.0%	[59] nm	411 nm	43.2%	[56] nm	411 nm
CCc1ccc(-c2cn3c(=O)c(Cc4ccccc4)nc-3c(Cc3ccccc3)[nH]2)cc1 [6-Ethyl-2H-CTZ]	0.62%	–	(402) nm	18.0%	[50] nm	411 nm
O=c1c(Cc2ccccc2)nc2c(Cc3ccccc3)[nH]c(-c3ccc(OCCO)cc3)cn1-2 [6-Alkyl2OH-2H-CTZ]	6.21%	[65] nm	413 nm	6.24%	[68] nm	407 nm
O=c1c(Cc2ccccc2)nc2c(Cc3ccccc3)[nH]c(-c3ccc(OCCCCO)cc3)cn1-2 [6-Alkyl4OH-2H-CTZ]	3.45%	[69] nm	404 nm	23.9%	[68] nm	405 nm
CCCCOc1ccc(-c2cn3c(=O)c(Cc4ccccc4)nc-3c(Cc3ccccc3)[nH]2)cc1 [6-Alkyl3-2H-CTZ]	2.00%	[50] nm	411 nm	28.4%	[53] nm	413 nm
O=c1c(Cc2ccc(O)cc2)nc2c(Cc3ccccc3)[nH]c(-c3ccc(OCCCCO)cc3)cn1-2 [6-Alkyl4OH-CTZ]	11.8%	[69] nm	404 nm	59.8%	[60] nm	412 nm
